Test results: patent US10548906B2, “Methods of promoting hepatic regeneration” (Intercept Pharmaceuticals, Inc., priority 2015, dated 2020)

Assays:
[1] = system: Wistar rats; test: Liver regrowth after 70% partial hepatectomy in post-cholestatic rats (Example 6); format: in vivo
From the text: Seven days after BDL or sham operation, all rats were subjected to 70% PHx [DeGraaf 2011]. In all rBDL rats, intestinal bile flow was restored directly prior to PHx by removing the closed cannula tip and inserting the cannula into the duodenum. Animals in all treatment groups were put on regular chow after PHx. OCA treatment was continued after PHx until sacrifice. As depicted in Scheme 1, the study consisted of five experimental groups (n=4-6 animals per group per time point): control (sham), steatosis (MCD), cholestasis (rBDL), combined steatosis and cholestasis (rBDL+MCD), and cholestasis+OCA (rBDL+OCA).
At baseline (i.e., directly before PHx) and one to five days after PHx, animals were euthanized under isoflurane anesthesia by exsanguination. Blood samples were collected from the caval vein in heparin-anticoagulated vacutainers (BD, Franklin Lakes, N.J.) and centrifuged for 10 min (3000×g, 4° C.). In rBDL animals sacrificed at baseline, bile was aspirated with a syringe from the dilated extrahepatic bile duct, weighed, and stored at −80° C. The liver and ileum were excised, weighed, loafed, and either fixed in a 10% (vol/vol) neutralized formalin solution (J. T. Baker, Center Valley, Pa.), snap-frozen in liquid nitrogen and stored at −80° C., or collected in RNAlater (Qiagen, Venlo, the Netherlands) and stored at −20° C. Liver regrowth was calculated from the regenerated liver mass, and was expressed as percentage of total liver mass prior to PHx. The projected remnant liver mass was calculated using the weight of the resected liver segments, which represent 70% of the total liver mass. Dry liver weights were measured to correct for hepatic water content [Kloek 2010a].
(§1) After formalin fixation, liver specimens were dehydrated, paraffin-embedded, and stained with hematoxylin and eosin (H&E), the collagen type I and III stain picrosirius red, or the proliferation marker Ki67 [Marsman 2013]. Semi-quantitative analysis of H&E- and picrosirius red-stained liver histology was performed by an experienced hepatopathologist (JV) blinded to the experimental groups using a scoring system detailed in Table 1. Ki67-positive hepatocyte nuclei were manually counted by two observers (RFG and PBO) in four randomly-selected microscopic fields at 200× magnification.

[2] = system: New Zealand White rabbits; test: Portal vein embolization (PVE) in rabbits, 6-ECDCA vs vehicle (Example 4); format: in vivo, rabbit
From the text: Female New Zealand White rabbits with a mean weight of 3.0±0.5 kg were acclimatized for 1 week under standardized laboratory conditions in a temperature-controlled room. The animals were individually housed, had free access to standard laboratory food and water, and were subjected to a 12-h light/dark cycle per day. The rabbits were divided into two groups receiving 6-ECDCA and two control groups receiving vehicle. Specifically, the PVE study rabbits were divided into following groups: • Group 1: Normal diet (6-ECDCA 10 mg/kg/day, oral gavage) (N=6), animals sacrificed at day 7, post PVE. • Group 2: Normal diet (Vehicle) (N=6), animals sacrificed at day 7 post PVE. • Group 3: Normal diet (6-ECDCA 10 mg/kg/day, oral gavage) (N=6), animals sacrificed at day 3, post PVE. • Group 4: Normal diet (Vehicle) (N=6), animals sacrificed at day 3, post PVE.
The rabbit liver consists of four liver lobes, three of which are positioned cranially, with the fourth located caudally. In the rabbit PVE model the cranial liver lobes, which account for approximately 80% of the total liver volume, were embolized. The rabbit was placed in a supine position after subcutaneous injection of 0.03 mg/kg buprenorphine and 0.02 mg/kg enrofloxacin. Rabbits were given enrofloxacin 0.02 mg/kg subcutaneously once a day for 3d postoperatively. Animals were anesthetized by intramuscular injection of 25.0 mg/kg ketamine and 0.2 mg/kg dexmedetomidine. Isoflurane 1%-2% with O2/air (1:0.7 L/min) was used to maintain anesthesia. Heart rate and arterial oxygen saturation were measured by pulse oximetry continuously throughout the procedure.
To identify the individual portal branches, portography was performed. After passing the portal branch to the caudal liver lobe, a microcatheter was positioned into the main portal branch supplying the cranial liver lobes. Animals received an initial mixture of contrast (Visipaque) and 90-180 μm polyvinyl alcohol (PVA) particles, followed by injection of 300-500 μm PVA particles until cessation of flow and placement of three platinum coils (6 mm). Portography directly after PVE confirmed total occlusion of the cranial portal blood flow in the embolization groups. The hypertrophy and atrophy responses of the caudal and cranial lobes were measured using CT volumetry before embolization and on day 3 and 7 post-embolization.
Multiphasic CT scans were performed using a 64-slice CT scan (Brilliance 64-channel; Philips, Eindhoven, The Netherlands). Rabbits were placed in supine position. After a blank series, a contrast enhanced scan was performed 15 s (arterial phase), 30 s (portal phase), and 45 s (venous phase) after contrast injection (4 mL Visipaque), followed by 3 mL NaCl. 3D-reconstructions of the liver were made using reconstructed 2 mm axial slices. The total liver and the cranial and caudal liver lobes were manually delineated and total liver volume (TLV) and the caudal liver volume (CLV) and cranial liver volume (CrLV) were calculated.
The following measurements were carried out: (1) body weight, (2) computed tomography of the embolized and non-embolized lobes, (3) expression of cell cycle-related and bile salt homeostasis-related transcripts in the liver, (4) expression of ileal transcripts, and (5) serum total bile salt concentration.
Serum bile salt concentration was determined at baseline, at 3 h, and at days 1, 3, and 7 post PVE. […]

[3] = system: Wistar rats; test: Liver growth in cholestatic (rBDL) rats prior to partial hepatectomy (Example 6); format: in vivo, rat; settings: prior to PHx
From the text: After the acclimatization period, the rats either continued on a regular chow diet or were switched to a methionine and choline-deficient (MCD) diet (Harlan Teklad, Madison, Wis.) for 3 weeks to induce moderate hepatic steatosis [Heger 2011a]. At the start of the second diet week, the rats either underwent sham surgery or were subjected to reversible bile duct ligation (rBDL). For rBDL, the extrahepatic bile duct was cannulated with a polyethylene catheter (length=±1.5 cm, inner diameter=0.4 mm, outer diameter=0.9 mm, Braun, Melsungen, Germany) connected to Silastic Tubing with a closed distal tip (length=±7.5 cm, inner diameter=0.8 mm, outer diameter=1.4 mm, Dow Corning, Midland, Mich.) [Kloek 2008]. Sham-operated animals underwent abdominal surgery, including bile duct mobilization, without inducing a biliary obstruction. Groups of rBDL rats were left untreated or received a daily oral gavage of the FXR agonist obeticholic acid (OCA, 10 mg/kg in 0.5% methylcellulose, 1.5 mL per 300 g body weight) between 7:30 and 9:00 AM.
Seven days after BDL or sham operation, all rats were subjected to 70% PHx [DeGraaf 2011]. […]
At baseline (i.e., directly before PHx) and one to five days after PHx, animals were euthanized under isoflurane anesthesia by exsanguination. […] Liver regrowth was calculated from the regenerated liver mass, and was expressed as percentage of total liver mass prior to PHx. The projected remnant liver mass was calculated using the weight of the resected liver segments, which represent 70% of the total liver mass. Dry liver weights were measured to correct for hepatic water content [Kloek 2010a].
as §1, with “Ki67-positive hepatocyte nuclei were manually counted by two observers (RFG and PBO) in four randomly-selected microscopic fields at 200× magnification.” left out

**Q.** Which “dry weight of the remnant liver” value ([1]; at the time of PHx, vs other two groups) does the source give for `CC[C@H]1[C@@H](O)[C@@H]2[C@H](CC[C@]3(C)[C@@H]([C@H](C)CCC(=O)O)CC[C@@H]23)[C@@]2(C)CC[C@@H](O)C[C@@H]12` [Compound 1, 3α,7α-dihydroxy-6α-ethyl-5β-cholanic acid] here?
**A.** The value was “higher”.

**Q.** And the “number of Ki67+ hepatocytes” value ([1]; day one after PHx)?
**A.** The value was “highest”.

**Q.** What about the mortality ([1]; regeneration phase) of the same molecule?
**A.** The mortality was “no mortality”.

**Q.** And the “liver regrowth after 70% PHx” value ([1]; vs untreated rBDL and control rats)?
**A.** The value was “stalled”.

**Q.** And the “increase in caudal liver volume (CLV)” value ([2]; CT, days 3 and 7 post embolization, FIG. 3)?
**A.** Its value is “accelerates hypertrophy of the non-embolized lobe”.

**Q.** And the “concentration of serum bile salts vs control” value ([2]; day 1 post PVE, FIG. 8)?
**A.** Its value is “relatively lower”.

**Q.** And the “body weight, difference vs vehicle” value ([2]; each day of the study, FIG. 2)?
**A.** Its value is “not statistically significant”.

**Q.** What about the “decrease in cranial liver lobe volume (CrLV)” value ([2]; embolized lobe, FIG. 5) of the same molecule?
**A.** Its value is “does not affect atrophy of the embolized lobe”.

**Q.** What about the “liver regeneration and liver mass” value ([2]; rabbit PVE model, 10 mg/kg/day oral gavage) of the same molecule?
**A.** Its value is “accelerates liver regeneration and increases liver mass”.

**Q.** And the “liver mass corrected for hepatic water content (dry weight)” value ([3]; 7 days rBDL)?
**A.** Its value is “increased liver mass”.

**Q.** What about the “gross liver mass vs control group” value ([3]; 7 days rBDL, 10 mg/kg daily oral) of the same molecule?
**A.** The value was “higher”.

**Q.** What about the “hepatocyte proliferation measured by Ki67 staining” value ([3]; vs untreated rBDL or non-cholestatic animals) of the same molecule?
**A.** The value was “more pronounced”.
